Molecular target: LmbR (C-His6-LmbR) (Streptomyces lincolnensis, UniProt Q54372)
Test: HPLC with charged aerosol detection, ESI-MS of product
Type: biochemical
Conditions: C5 acceptor, 10 mM; co-substrate F6P 10 mM

Structure (SMILES) | HPLC with charged aerosol detection, ESI-MS of product
O=P(O)(O)OC[C@H]1OC(O)[C@H](O)[C@@H]1O (stereo partly drawn) [8a, D-ribose 5-phosphate] | LmbR can accept both R5P (8a) and X5P (8b) as the C5 substrate
O=P(O)(O)OC[C@H]1OC(O)[C@H](O)[C@H]1O (stereo partly drawn) [8b, D-xylose 5-phosphate] | LmbR can accept both R5P (8a) and X5P (8b) as the C5 substrate
